Data published in patent publication US6004994A, “Heterocyclic diarylmethylene derivatives, methods of preparing them and their uses in therapeutics” (Laboratoires UPSA, priority 1998, dated 1999).

How the values were obtained:
COX-2 = biological target: T1, COX-2 (Ovis aries, UniProt P79208); test: Inhibition of COX-2 enzymatic activity (PGE2 produced determined by EIA); type: biochemical, ewe (purified enzyme from ewe placenta); conditions: ewe placenta COX-2, arachidonic acid 4 μM; for inhibition at 10 µM: 10^-5 M; for IC50: n=1 to 4 determinations; for inhibition at 1 µM: at 10^-6 M
T1 construct: purified enzyme from ewe placenta; from tissue; host or cells: ewe placenta
T1 sequence (P79208 17-603): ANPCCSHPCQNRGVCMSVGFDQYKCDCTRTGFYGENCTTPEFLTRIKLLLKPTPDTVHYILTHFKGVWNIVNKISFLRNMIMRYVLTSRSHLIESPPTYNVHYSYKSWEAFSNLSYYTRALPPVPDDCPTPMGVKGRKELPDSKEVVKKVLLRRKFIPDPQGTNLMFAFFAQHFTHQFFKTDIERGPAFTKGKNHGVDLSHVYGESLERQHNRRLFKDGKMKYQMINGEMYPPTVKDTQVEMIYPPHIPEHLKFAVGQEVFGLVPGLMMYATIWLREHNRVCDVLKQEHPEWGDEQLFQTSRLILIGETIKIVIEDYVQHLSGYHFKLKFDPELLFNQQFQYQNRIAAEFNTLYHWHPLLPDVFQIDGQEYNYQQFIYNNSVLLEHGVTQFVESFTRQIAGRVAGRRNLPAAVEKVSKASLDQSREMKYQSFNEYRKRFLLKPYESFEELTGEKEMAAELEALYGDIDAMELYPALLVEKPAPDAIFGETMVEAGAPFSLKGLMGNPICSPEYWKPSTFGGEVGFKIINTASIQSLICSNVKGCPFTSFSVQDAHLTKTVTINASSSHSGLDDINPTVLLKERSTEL
Experimental: (§1) The molecule studied is preincubated for 10 minutes at 25° C. with 2 U of COX-1 (purified enzyme from ram seminal vesicles) or 1 U of COX-2 (purified enzyme from ewe placenta). Arachidonic acid (6 μM for COX-1, 4 μM for COX-2) is added to the reaction medium and incubation is carried out for 5 minutes at 25° C. When incubation has ended, the enzymatic reaction is stopped by the addition of 1 N HCl and the PGE2 produced is deter mined by EIA. […] For other examples, the results are expressed in the form of IC50, the concentration in μM corresponding to 50% inhibition of the maximal enzymatic activity upon COX-1 and COX-2 (n=1 to 4 determinations).

COX-1 = biological target: T2, COX-1 (Ovis aries, UniProt P05979); test: Inhibition of COX-1 enzymatic activity (PGE2 produced determined by EIA); type: biochemical, ram (purified enzyme from ram seminal vesicles); conditions: 10^-4 M; ram seminal vesicle COX-1, arachidonic acid 6 μM
T2 construct: purified enzyme from ram seminal vesicles; from tissue; host or cells: ram seminal vesicles
T2 sequence (P05979 25-600): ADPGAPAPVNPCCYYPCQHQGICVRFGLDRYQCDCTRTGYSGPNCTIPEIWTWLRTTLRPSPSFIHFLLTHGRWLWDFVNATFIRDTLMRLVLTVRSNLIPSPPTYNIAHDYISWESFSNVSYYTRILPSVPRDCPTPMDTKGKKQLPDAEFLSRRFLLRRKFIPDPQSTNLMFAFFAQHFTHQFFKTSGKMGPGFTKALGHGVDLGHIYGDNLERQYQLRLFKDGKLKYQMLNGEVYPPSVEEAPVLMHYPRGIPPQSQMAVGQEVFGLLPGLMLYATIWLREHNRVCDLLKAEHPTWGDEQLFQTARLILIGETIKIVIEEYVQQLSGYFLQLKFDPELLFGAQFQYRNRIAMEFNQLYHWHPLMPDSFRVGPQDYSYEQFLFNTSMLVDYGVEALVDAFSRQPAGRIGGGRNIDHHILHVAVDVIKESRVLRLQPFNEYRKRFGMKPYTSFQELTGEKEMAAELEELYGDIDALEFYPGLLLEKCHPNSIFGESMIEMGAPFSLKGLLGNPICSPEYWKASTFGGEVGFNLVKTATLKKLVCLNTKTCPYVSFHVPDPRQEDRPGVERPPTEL
Experimental: as §1

arthritis with kaolin = test: Analgesic activity: arthritis with kaolin in rats; type: in vivo; conditions: rat, oral, thirty minutes after intra-articular kaolin; dose inducing 50% decrease of the maximal quotations of control
Experimental: The analgesic activity of the compounds of the Examples was evaluated according to the method of arthritis with kaolin.
The analgesic activity is evaluated in rats by the test of arthritis with kaolin. Thirty minutes after intra-articular administration of an aqueous 10% suspension of kaolin, the product is administered orally at a rate of 1 ml 100 g (n=10 animals per dose). The results are expressed in the form of ED50, the dose in mg/kg which induces 50% decrease of the maximal quotations obtained in the control batch, calculated by linear regression.

Structure (SMILES)	inhibition at 10 µM (COX-2) [%]	IC50 (COX-2) [nM]	inhibition at 100 µM (COX-1) [%]	inhibition at 1 µM (COX-2) [%]	ED50 (arthritis with kaolin) [mg/kg]
CS(=O)(=O)c1ccc(/C(=C2\CCN(C3CCCCC3)C2=O)c2ccc(Cl)cc2)cc1 [29 Z isomer]	86		72		
CS(=O)(=O)c1ccc(/C(=C2\CCN(Cc3ccccc3)C2=O)c2ccc(Cl)cc2)cc1 [31 Z isomer]	88		88		18.5
CS(=O)(=O)c1ccc(C(=C2CCN(CCc3ccccc3)C2=O)c2ccc(Cl)cc2)cc1 [60 Z isomer]			32	52	
CS(=O)(=O)c1ccc(C(=C2CCN(Cc3cccc(Cl)c3)C2=O)c2ccc(Cl)cc2)cc1 [62 Z isomer]	91		79		
CS(=O)(=O)c1ccc(C(=C2CCN(Cc3ccccc3Cl)C2=O)c2ccc(Cl)cc2)cc1 [63 Z isomer]	88		83		
Cc1cccc(CN2CCC(=C(c3ccc(Cl)cc3)c3ccc(S(C)(=O)=O)cc3)C2=O)c1 [64 Z isomer]	59				
CS(=O)(=O)c1ccc(C(=C2CCN(Cc3ccc(Br)cc3)C2=O)c2ccc(Cl)cc2)cc1 [65 Z isomer]	83				
CS(=O)(=O)c1ccc(/C(=C2\N=C(c3ccccc3)OC2=O)c2ccc(Cl)cc2)cc1 [77 E isomer]	77	2830	90		
CS(=O)(=O)c1ccc(/C(=C2\SC(=S)NC2=O)c2ccc(Cl)cc2)cc1 [78 E isomer]	72	1540	37		
CS(=O)(=O)c1ccc(/C(=C2\CCSC2=O)c2ccc(Cl)cc2)cc1 [80 Z isomer]		120			13.7

Now from value to molecule, other results behind:

inhibition at 10 µM (COX-2) [%]	IC50 (COX-2) [nM]	inhibition at 100 µM (COX-1) [%]	inhibition at 1 µM (COX-2) [%]	Structure (SMILES)	ED50 (arthritis with kaolin) [mg/kg]
77	2940	6		CN1CC/C(=C(/c2ccc(Cl)cc2)c2ccc(S(C)(=O)=O)cc2)C1=O [28 Z isomer]	
56				CC(=O)OCCN1CC/C(=C(/c2ccc(Cl)cc2)c2ccc(S(C)(=O)=O)cc2)C1=O [30 Z isomer]	
84	2530	13		CCN1CC/C(=C(/c2ccc(Cl)cc2)c2ccc(S(C)(=O)=O)cc2)C1=O [32 Z isomer]	
	393		70	CN1CC/C(=C(\c2ccc(S(N)(=O)=O)cc2)c2ccc(Cl)c(Cl)c2)C1=O [33 Z isomer]	
92		36		CN1CC/C(=C(\c2ccc(S(C)(=O)=O)cc2)c2ccc(Cl)c(Cl)c2)C1=O [53 Z isomer]	
44				COc1ccc(/C(=C2/CCN(C)C2=O)c2ccc(S(C)(=O)=O)cc2)cc1 [55 E isomer]	
53				Cc1cc(/C(=C2/CCN(C)C2=O)c2ccc(S(C)(=O)=O)cc2)ccc1F [56 Z isomer]	
	229		80	CS(=O)(=O)c1ccc(C(=C2CCN(Cc3ccccc3)C2=O)c2ccc(Cl)c(Cl)c2)cc1 [61 Z isomer]	
